Test results reported in PubChem BioAssay AID248 (DTP/NCI, 2004).
“And” between values parts separate entries of the source, which are not always exact repeats. Equal entries are not always repeated. Inconclusive results and toxic doses are left out.

Test system: L1210 leukemia ip in BDF1 mice, survival T/C
Test: NCI In Vivo Anticancer Drug Screen. Data for tumor model L1210 Leukemia (intraperitoneal) in B6D2F1 (BDF1) mice
Conditions: endpoint: mean survival time, higher = longer survival
Procedure, shortened: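 Survival endpoint. Drug-treated group vs vehicle group, expressed as T divided by C. Tumor passaged by transplantation.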

With `O=C(Nc1ccc(C2=NCCN2)cc1)c1ccc(C(=O)Nc2ccc(C3=NCCN3)cc2)c(NC(=O)c2ccc(C(=O)Nc3cc(C(=O)Nc4ccc(C5=NCCN5)cc4)ccc3C(=O)Nc3ccc(C4=NCCN4)cc3)cc2)c1` the T/C (dose: 2.5 mg/kg/injection, schedule: Q01DX Z (ip), vehicle: methylcellulose (MC)) was 120 % of control, the T/C (dose: 3.1 mg/kg/injection, schedule: Q01DX Z (ip), vehicle: carboxymethylcellulose (CMC)) was 104 % of control and the T/C (dose: 6.2 mg/kg/injection, schedule: Q01DX Z (ip), vehicle: carboxymethylcellulose (CMC)) was 107 % of control. The T/C (dose: 6.25 mg/kg/injection, schedule: Q#A X Z (ip), vehicle: carboxymethylcellulose (CMC)) was 108 % of control, the T/C (dose: 10.0 mg/kg/injection, schedule: Q01DX Z (ip), vehicle: methylcellulose (MC)) was 157 % of control and the T/C (dose: 12.5 mg/kg/injection, schedule: Q01DX Z (ip), vehicle: carboxymethylcellulose (CMC)) was 119 % of control. The T/C (dose: 12.5 mg/kg/injection, schedule: Q01DX Z (sc), vehicle: carboxymethylcellulose (CMC)) was 98 % of control, the T/C (dose: 12.5 mg/kg/injection, schedule: Q#A X Z (ip), vehicle: carboxymethylcellulose (CMC)) was 192 % of control and the T/C (dose: 22.0 mg/kg/injection, schedule: Q01DX015 (ip), vehicle: carboxymethylcellulose (CMC)) was 116 % of control. The T/C (dose: 25.0 mg/kg/injection, schedule: Q01DX004 (im), vehicle: olive oil, sesame oil, peanut oil) was 97 % of control, the T/C (dose: 25.0 mg/kg/injection, schedule: Q01DX Z (ip), vehicle: carboxymethylcellulose (CMC)) was 175 % of control and the T/C (dose: 25.0 mg/kg/injection, schedule: Q01DX Z (sc), vehicle: carboxymethylcellulose (CMC)) was 122 % of control. For the same compound, the T/C (dose: 25.0 mg/kg/injection, schedule: Q#A X Z (ip), vehicle: carboxymethylcellulose (CMC)) was 289 % of control, the T/C (dose: 33.0 mg/kg/injection, schedule: Q01DX015 (ip), vehicle: carboxymethylcellulose (CMC)) was 106 % of control and the T/C (dose: 50.0 mg/kg/injection, schedule: Q01DX004 (im), vehicle: olive oil, sesame oil, peanut oil) was 95 % of control. For the same compound, the T/C (dose: 50.0 mg/kg/injection, schedule: Q01DX015 (ip), vehicle: carboxymethylcellulose (CMC)) was 110 % of control, the T/C (dose: 50.0 mg/kg/injection, schedule: Q01DX Z (ip), vehicle: carboxymethylcellulose (CMC)) was 302 % of control and the T/C (dose: 50.0 mg/kg/injection, schedule: Q01DX Z (oral), vehicle: carboxymethylcellulose (CMC)) was 95 % of control. The T/C (dose: 50.0 mg/kg/injection, schedule: Q01DX Z (sc), vehicle: carboxymethylcellulose (CMC)) was 201 % of control, the T/C (dose: 50.0 mg/kg/injection, schedule: Q#A X Z (ip), vehicle: carboxymethylcellulose (CMC)) was 194 % of control and the T/C (dose: 60.0 mg/kg/injection, schedule: Q01DX Z (ip), vehicle: methylcellulose (MC)) was 158 % of control and 359 % of control. The T/C (dose: 62.5 mg/kg/injection, schedule: Q## X010 (oral), vehicle: saline) was 98 % of control, the T/C (dose: 75.0 mg/kg/injection, schedule: Q03DX Z (ip), vehicle: carboxymethylcellulose (CMC)) was 206 % of control and the T/C (dose: 100.0 mg/kg/injection, schedule: Q01DX004 (im), vehicle: olive oil, sesame oil, peanut oil) was 95 % of control. For the same compound, the T/C (dose: 100.0 mg/kg/injection, schedule: Q01DX Z (ip), vehicle: carboxymethylcellulose (CMC)) was 195 % of control, the T/C (dose: 100.0 mg/kg/injection, schedule: Q01DX Z (oral), vehicle: carboxymethylcellulose (CMC)) was 93 % of control and the T/C (dose: 100.0 mg/kg/injection, schedule: Q01DX Z (sc), vehicle: carboxymethylcellulose (CMC)) was 208 % of control. The T/C (dose: 112.5 mg/kg/injection, schedule: Q01DX015 (ip), vehicle: carboxymethylcellulose (CMC)) was 169 % of control, the T/C (dose: 120.0 mg/kg/injection, schedule: Q01DX Z (ip), vehicle: methylcellulose (MC)) was 314 % of control and the T/C (dose: 150.0 mg/kg/injection, schedule: Q03DX Z (ip), vehicle: carboxymethylcellulose (CMC)) was 284 % of control. The T/C (dose: 175.0 mg/kg/injection, schedule: Q07DX Z (ip), vehicle: carboxymethylcellulose (CMC)) was 293 % of control, the T/C (dose: 192.0 mg/kg/injection, schedule: Q01DX001 (ip), vehicle: carboxymethylcellulose (CMC)) was 97 % of control and the T/C (dose: 192.0 mg/kg/injection, schedule: Q01DX001 (ip), vehicle: other) was 100 % of control. For the same compound, the T/C (dose: 200.0 mg/kg/injection, schedule: Q01DX004 (im), vehicle: olive oil, sesame oil, peanut oil) was 98 % of control, the T/C (dose: 200.0 mg/kg/injection, schedule: Q01DX Z (oral), vehicle: carboxymethylcellulose (CMC)) was 97 % of control and the T/C (dose: 200.0 mg/kg/injection, schedule: Q01DX Z (sc), vehicle: carboxymethylcellulose (CMC)) was 227 % of control. The T/C (dose: 240.0 mg/kg/injection, schedule: Q01DX Z (ip), vehicle: methylcellulose (MC)) was 210 % of control, the T/C (dose: 250.0 mg/kg/injection, schedule: Q## X010 (oral), vehicle: saline) was 101 % of control and the T/C (dose: 281.0 mg/kg/injection, schedule: Q01DX001 (ip), vehicle: carboxymethylcellulose (CMC)) was 97 % of control. The T/C (dose: 281.0 mg/kg/injection, schedule: Q01DX001 (ip), vehicle: other) was 103 % of control, the T/C (dose: 300.0 mg/kg/injection, schedule: Q03DX Z (ip), vehicle: carboxymethylcellulose (CMC)) was 190 % of control and the T/C (dose: 350.0 mg/kg/injection, schedule: Q07DX Z (ip), vehicle: carboxymethylcellulose (CMC)) was 278 % of control. The T/C (dose: 400.0 mg/kg/injection, schedule: Q01DX Z (oral), vehicle: carboxymethylcellulose (CMC)) was 104 % of control, the T/C (dose: 422.0 mg/kg/injection, schedule: Q01DX001 (ip), vehicle: carboxymethylcellulose (CMC)) was 95 % of control and the T/C (dose: 422.0 mg/kg/injection, schedule: Q01DX001 (ip), vehicle: other) was 106 % of control. For the same compound, the T/C (dose: 500.0 mg/kg/injection, schedule: Q## X010 (oral), vehicle: saline) was 104 % of control, the T/C (dose: 640.0 mg/kg/injection, schedule: Q01DX001 (ip), vehicle: carboxymethylcellulose (CMC)) was 104 % of control and the T/C (dose: 640.0 mg/kg/injection, schedule: Q01DX001 (ip), vehicle: other) was 104 % of control. The T/C (dose: 700.0 mg/kg/injection, schedule: Q07DX Z (ip), vehicle: carboxymethylcellulose (CMC)) was 185 % of control, the T/C (dose: 800.0 mg/kg/injection, schedule: Q01DX Z (oral), vehicle: carboxymethylcellulose (CMC)) was 89 % of control and the T/C (dose: 960.0 mg/kg/injection, schedule: Q01DX001 (ip), vehicle: carboxymethylcellulose (CMC)) was 106 % of control and 120 % of control. For the same compound, the T/C (dose: 1440.0 mg/kg/injection, schedule: Q01DX001 (ip), vehicle: carboxymethylcellulose (CMC)) was 116 % of control, the T/C (dose: 1440.0 mg/kg/injection, schedule: Q01DX001 (ip), vehicle: other) was 120 % of control and the T/C (dose: 2160.0 mg/kg/injection, schedule: Q01DX001 (ip), vehicle: carboxymethylcellulose (CMC)) was 121 % of control. The T/C (dose: 3240.0 mg/kg/injection, schedule: Q01DX001 (ip), vehicle: carboxymethylcellulose (CMC)) was 123 % of control and the T/C (dose: 3240.0 mg/kg/injection, schedule: Q01DX001 (ip), vehicle: other) was 191 % of control.
For `CC/C(=C(\CC)c1ccc(OCCOS(=O)(=O)c2ccccc2)cc1)c1ccc(OCCOS(=O)(=O)c2ccccc2)cc1`, the T/C (dose: 12.5 mg/kg/injection, schedule: Q04DX002 (ip), vehicle: saline) was 101 % of control, the T/C (dose: 25.0 mg/kg/injection, schedule: Q04DX002 (ip), vehicle: saline) was 101 % of control and the T/C (dose: 50.0 mg/kg/injection, schedule: Q04DX002 (ip), vehicle: saline) was 101 % of control.
For `CCN1CC(=O)N(C)C1=S`, the T/C (dose: 50.0 mg/kg/injection, schedule: Q01DX001 (ip), vehicle: carboxymethylcellulose (CMC)) was 103 % of control, the T/C (dose: 100.0 mg/kg/injection, schedule: Q01DX001 (ip), vehicle: carboxymethylcellulose (CMC)) was 100 % of control and the T/C (dose: 200.0 mg/kg/injection, schedule: Q01DX001 (ip), vehicle: carboxymethylcellulose (CMC)) was 97 % of control. The T/C (dose: 400.0 mg/kg/injection, schedule: Q01DX001 (ip), vehicle: carboxymethylcellulose (CMC)) was 118 % of control.
For `O=C(O)CCC(=O)NNC(=O)Cc1c[nH]c2ccccc12`, the T/C (dose: 100.0 mg/kg/injection, schedule: Q01DX001 (ip), vehicle: other) was 106 % of control, the T/C (dose: 100.0 mg/kg/injection, schedule: Q04DX003 (ip), vehicle: other) was 95 % of control and the T/C (dose: 200.0 mg/kg/injection, schedule: Q01DX001 (ip), vehicle: other) was 106 % of control. For the same compound, the T/C (dose: 200.0 mg/kg/injection, schedule: Q04DX003 (ip), vehicle: other) was 94 % of control, the T/C (dose: 400.0 mg/kg/injection, schedule: Q01DX001 (ip), vehicle: other) was 97 % of control and the T/C (dose: 400.0 mg/kg/injection, schedule: Q04DX003 (ip), vehicle: other) was 94 % of control.
`CC1(C)C=C(C(Br)c2ccc(Cl)cc2)C(=O)c2ccccc21` (centres undefined) was tested, and the T/C (dose: 50.0 mg/kg/injection, schedule: Q01DX009 (ip), vehicle: Klucel (hydroxypropylcellulose) (HPC)) was 110 % of control, the T/C (dose: 100.0 mg/kg/injection, schedule: Q01DX009 (ip), vehicle: Klucel (hydroxypropylcellulose) (HPC)) was 105 % of control and the T/C (dose: 100.0 mg/kg/injection, schedule: Q04DX003 (ip), vehicle: Klucel (hydroxypropylcellulose) (HPC)) was 95 % of control. The T/C (dose: 200.0 mg/kg/injection, schedule: Q01DX009 (ip), vehicle: Klucel (hydroxypropylcellulose) (HPC)) was 100 % of control and the T/C (dose: 200.0 mg/kg/injection, schedule: Q04DX003 (ip), vehicle: Klucel (hydroxypropylcellulose) (HPC)) was 92 % of control.
